Reference: ChEMBL document CHEMBL1201862, “PubChem BioAssay data set” (2004)
The source made the active and inactive calls.

Key:
[1] = target: T1, Histone-lysine N-methyltransferase NSD2 (Homo sapiens, UniProt O96028); type: biochemical
T1 sequence (O96028 whole entry): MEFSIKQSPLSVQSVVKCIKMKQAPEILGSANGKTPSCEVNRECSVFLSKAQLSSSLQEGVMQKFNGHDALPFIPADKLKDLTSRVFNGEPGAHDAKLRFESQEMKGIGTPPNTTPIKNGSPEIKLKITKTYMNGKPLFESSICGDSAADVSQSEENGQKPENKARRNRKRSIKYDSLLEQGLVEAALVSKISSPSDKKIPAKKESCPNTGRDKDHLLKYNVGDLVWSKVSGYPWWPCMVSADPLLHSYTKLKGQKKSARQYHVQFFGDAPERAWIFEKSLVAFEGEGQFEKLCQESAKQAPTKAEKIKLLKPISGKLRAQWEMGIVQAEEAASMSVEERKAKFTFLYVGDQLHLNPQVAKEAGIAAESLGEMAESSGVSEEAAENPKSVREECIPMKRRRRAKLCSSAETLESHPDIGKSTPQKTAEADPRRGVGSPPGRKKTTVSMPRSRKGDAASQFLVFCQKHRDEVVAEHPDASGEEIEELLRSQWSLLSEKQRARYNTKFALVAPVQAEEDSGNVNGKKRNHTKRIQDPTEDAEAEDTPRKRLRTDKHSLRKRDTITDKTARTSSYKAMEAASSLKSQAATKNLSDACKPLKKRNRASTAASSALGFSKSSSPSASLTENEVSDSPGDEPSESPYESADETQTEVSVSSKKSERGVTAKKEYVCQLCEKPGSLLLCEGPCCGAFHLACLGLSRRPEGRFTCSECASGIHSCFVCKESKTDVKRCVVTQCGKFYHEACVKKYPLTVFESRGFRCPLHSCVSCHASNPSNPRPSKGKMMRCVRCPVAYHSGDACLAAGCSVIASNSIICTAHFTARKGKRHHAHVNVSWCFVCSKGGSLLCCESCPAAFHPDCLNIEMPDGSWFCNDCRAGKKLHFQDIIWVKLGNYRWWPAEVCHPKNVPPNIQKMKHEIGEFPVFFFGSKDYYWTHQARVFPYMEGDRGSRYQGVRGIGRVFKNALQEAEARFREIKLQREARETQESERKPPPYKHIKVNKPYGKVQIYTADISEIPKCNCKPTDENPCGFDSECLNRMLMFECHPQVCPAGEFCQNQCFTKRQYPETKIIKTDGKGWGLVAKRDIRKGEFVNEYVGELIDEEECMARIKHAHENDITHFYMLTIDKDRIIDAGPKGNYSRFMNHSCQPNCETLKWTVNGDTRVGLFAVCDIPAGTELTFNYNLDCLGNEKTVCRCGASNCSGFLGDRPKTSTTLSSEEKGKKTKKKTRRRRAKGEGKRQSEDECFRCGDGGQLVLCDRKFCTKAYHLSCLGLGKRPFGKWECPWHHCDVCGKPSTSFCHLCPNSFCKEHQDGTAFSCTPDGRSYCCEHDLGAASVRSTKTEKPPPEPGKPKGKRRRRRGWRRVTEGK

[2] = target: T2, Carboxy-terminal domain RNA polymerase II polypeptide A small phosphatase 1 (Homo sapiens, UniProt Q9GZU7); assay: inhibitors of CTDSP1, concentration-response testing, biochemical assay, absorbance-based, actives from ultra-high-throughput screening (AID 540297); type: functional
T2 sequence (Q9GZU7 whole entry): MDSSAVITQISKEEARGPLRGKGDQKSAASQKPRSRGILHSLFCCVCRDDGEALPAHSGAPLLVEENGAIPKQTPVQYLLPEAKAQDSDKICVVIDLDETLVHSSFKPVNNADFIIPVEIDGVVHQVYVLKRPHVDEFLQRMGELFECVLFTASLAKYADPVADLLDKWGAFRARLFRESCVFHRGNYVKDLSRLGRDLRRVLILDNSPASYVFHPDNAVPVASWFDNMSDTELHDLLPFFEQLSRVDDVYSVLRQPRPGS

[3] = target: T3, Long-chain-fatty-acid--AMP ligase FadD28 (Mycobacterium tuberculosis, UniProt P9WQ59); assay: Fluorescence polarization aasay to screen for inhibitors that compete for the binding of FadD28 to a bisubstrate Measured in Biochemical System Using Plate Reader - 2147-01_Inhibitor_Dose_CherryPick_Activity.; type: functional, Mycobacterium tuberculosis H37Rv
T3 sequence (P9WQ59 whole entry): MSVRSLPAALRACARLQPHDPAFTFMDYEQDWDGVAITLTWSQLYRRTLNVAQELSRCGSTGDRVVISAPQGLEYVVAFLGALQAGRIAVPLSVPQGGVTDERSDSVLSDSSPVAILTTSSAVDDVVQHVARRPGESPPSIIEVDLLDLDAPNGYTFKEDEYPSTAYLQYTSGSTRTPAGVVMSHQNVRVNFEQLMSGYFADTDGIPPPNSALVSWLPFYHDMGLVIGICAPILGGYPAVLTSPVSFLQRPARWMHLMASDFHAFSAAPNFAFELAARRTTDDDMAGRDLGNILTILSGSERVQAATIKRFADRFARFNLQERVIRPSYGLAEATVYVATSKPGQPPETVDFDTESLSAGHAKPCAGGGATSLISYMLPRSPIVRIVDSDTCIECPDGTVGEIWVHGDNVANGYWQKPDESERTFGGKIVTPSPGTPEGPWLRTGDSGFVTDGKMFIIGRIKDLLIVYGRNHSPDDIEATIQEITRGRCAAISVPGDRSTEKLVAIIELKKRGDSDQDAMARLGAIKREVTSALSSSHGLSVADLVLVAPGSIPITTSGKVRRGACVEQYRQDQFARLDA

[4] = target: Eukaryotic translation initiation factor 4E (Mus musculus, UniProt P63073); assay: eIF4E–eIF4G protein interaction inhibitors, dose response, biochemical, TR-FRET (AID 855); type: functional;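 note: potency for disrupting eIF4E binding to eIF4GI seen as loss of FRET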
Kallikrein-7 = Kallikrein-7 (Homo sapiens, UniProt P49862); assay: Fluorescence Intensity-based biochemical primary high throughput dose response assay to identify activators of kallikrein-7 (K7) zymogen.
[5] = LGR2 antagonists, dose response, cell-based, HEK293, CRE-luciferase reporter, cherry pick, set 2 (AID 743343); type: functional;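 note: transfected cells were stimulated with diluted bursicon conditioned medium after compound addition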
[6] = MC4R antagonists, dose response, counter-screen for LGR2 antagonist project, cell-based, plate reader, cherry pick (AID 743444); type: functional;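 note: transfected HEK 293 cells stimulated with alpha-MSH peptide; potency of inhibitors of the alpha-MSH evoked signal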
Vero = assay: cells; type: functional; details: Chlorocebus sabaeus
[7] = HEK293 cell cytotoxicity, dose response, cytotoxicity control, plate reader, cherry-picked samples (AID 743446); type: functional, cell-based
[8] = ADAM10 inhibitors, peptide cleavage, dose response, biochemical, QFRET (AID 743254);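 note: ADAM10 enzyme with the DM2 quenched FRET peptide as substrate; EDANS fluorescence gain as the protease cuts the substrate; inhibitor potency against ADAM10 proteolytic activity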
[9] = target: Disintegrin and metalloproteinase domain-containing protein 17 (Homo sapiens, UniProt P78536); assay: ADAM17 protease inhibitors, dose response, counter-screen for ADAM10 exosite inhibitor project, biochemical, quenched FRET substrate (AID 743253)
[10] = HepG2 cell cytotoxicity, dose response, cytotoxicity control, plate reader, cherry-pick, antagonist series (AID 743416); type: functional, cell-based
[11] = target: Induced myeloid leukemia cell differentiation protein Mcl-1 (Homo sapiens, UniProt Q07820); type: functional
[12] = A549 cell cytotoxicity, dose response, cytotoxicity control, plate reader, cherry-pick, antagonist series (AID 743412); type: functional, cell-based
[13] = target: NAD-dependent protein deacylase sirtuin-5, mitochondrial (Homo sapiens, UniProt Q9NXA8); assay: SIRT5 desuccinylase inhibitors, dose response, biochemical, fluorescence imaging, cherry-pick, set 5 (AID 720591);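 note: desuccinylation of succinyl peptide AMC substrate read as fluorescence after trypsin release; potency of inhibitors that lower fluorescence and may act on trypsin instead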
[14] = CEM21 lymphoblast cell cytotoxicity, dose response, cytotoxicity control for viral fusion inhibitor project, CellTiter-Glo luminescence, cherry-picked (AID 652042); type: functional, cell-based;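 note: potency for signal decrease meaning cytotoxicity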
[15] = inhibitors of HIV Env-driven cell fusion, dose response, cherry-pick (AID 652057); type: functional, cell-based
[16] = off-target signal loss in HeLa-CEM21 co-culture – HeLa F-luc CTL cells, cherry-picked, counter-screen for HIV-1 Env fusion inhibitor project, dose response (AID 652040); type: functional, cell-based;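 note: potency for signal decrease marking cytotoxic or nonspecific inhibition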
[17] = ZM109 Env clade C HIV-1 fusion inhibitors, dose response, HeLa effector, CEM target cells, luciferase, cherry-pick (AID 652058); type: functional, cell-based

NAD-dependent protein deacylase sirtuin-5, mitochondrial, sequence (Q9NXA8 whole entry, the tested form may be a part): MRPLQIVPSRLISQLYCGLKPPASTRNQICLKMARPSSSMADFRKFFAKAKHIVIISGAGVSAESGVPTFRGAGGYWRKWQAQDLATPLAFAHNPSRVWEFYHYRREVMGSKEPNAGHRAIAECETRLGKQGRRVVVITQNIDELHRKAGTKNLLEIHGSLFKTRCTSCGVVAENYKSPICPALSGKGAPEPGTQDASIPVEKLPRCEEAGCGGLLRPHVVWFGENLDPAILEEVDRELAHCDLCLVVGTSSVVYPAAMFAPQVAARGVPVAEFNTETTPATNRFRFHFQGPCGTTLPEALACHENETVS
Kallikrein-7, sequence (P49862 whole entry): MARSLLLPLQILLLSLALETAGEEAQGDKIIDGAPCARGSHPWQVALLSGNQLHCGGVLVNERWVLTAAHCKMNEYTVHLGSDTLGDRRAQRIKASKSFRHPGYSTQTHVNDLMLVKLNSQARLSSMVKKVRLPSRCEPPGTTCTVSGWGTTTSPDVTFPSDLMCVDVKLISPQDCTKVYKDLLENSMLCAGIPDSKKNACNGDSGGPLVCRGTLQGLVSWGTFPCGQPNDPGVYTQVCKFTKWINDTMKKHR
Eukaryotic translation initiation factor 4E, sequence (P63073 whole entry): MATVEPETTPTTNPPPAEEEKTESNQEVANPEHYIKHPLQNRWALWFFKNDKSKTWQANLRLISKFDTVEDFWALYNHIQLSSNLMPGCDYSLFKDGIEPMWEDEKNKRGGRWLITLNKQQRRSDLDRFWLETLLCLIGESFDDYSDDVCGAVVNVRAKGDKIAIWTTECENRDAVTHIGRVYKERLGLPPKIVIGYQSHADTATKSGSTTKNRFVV
Induced myeloid leukemia cell differentiation protein Mcl-1, sequence (Q07820 whole entry): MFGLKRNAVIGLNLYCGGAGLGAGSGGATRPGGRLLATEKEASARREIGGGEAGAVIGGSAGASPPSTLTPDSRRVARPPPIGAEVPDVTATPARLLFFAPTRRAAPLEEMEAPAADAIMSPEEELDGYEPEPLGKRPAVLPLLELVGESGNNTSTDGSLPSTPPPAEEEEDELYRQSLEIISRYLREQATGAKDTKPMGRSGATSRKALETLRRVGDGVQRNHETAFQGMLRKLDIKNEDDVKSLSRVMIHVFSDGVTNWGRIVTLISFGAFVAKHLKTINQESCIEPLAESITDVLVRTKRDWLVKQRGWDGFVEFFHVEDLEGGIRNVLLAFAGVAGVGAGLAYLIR
Disintegrin and metalloproteinase domain-containing protein 17, sequence (P78536 whole entry, the tested form may be a part): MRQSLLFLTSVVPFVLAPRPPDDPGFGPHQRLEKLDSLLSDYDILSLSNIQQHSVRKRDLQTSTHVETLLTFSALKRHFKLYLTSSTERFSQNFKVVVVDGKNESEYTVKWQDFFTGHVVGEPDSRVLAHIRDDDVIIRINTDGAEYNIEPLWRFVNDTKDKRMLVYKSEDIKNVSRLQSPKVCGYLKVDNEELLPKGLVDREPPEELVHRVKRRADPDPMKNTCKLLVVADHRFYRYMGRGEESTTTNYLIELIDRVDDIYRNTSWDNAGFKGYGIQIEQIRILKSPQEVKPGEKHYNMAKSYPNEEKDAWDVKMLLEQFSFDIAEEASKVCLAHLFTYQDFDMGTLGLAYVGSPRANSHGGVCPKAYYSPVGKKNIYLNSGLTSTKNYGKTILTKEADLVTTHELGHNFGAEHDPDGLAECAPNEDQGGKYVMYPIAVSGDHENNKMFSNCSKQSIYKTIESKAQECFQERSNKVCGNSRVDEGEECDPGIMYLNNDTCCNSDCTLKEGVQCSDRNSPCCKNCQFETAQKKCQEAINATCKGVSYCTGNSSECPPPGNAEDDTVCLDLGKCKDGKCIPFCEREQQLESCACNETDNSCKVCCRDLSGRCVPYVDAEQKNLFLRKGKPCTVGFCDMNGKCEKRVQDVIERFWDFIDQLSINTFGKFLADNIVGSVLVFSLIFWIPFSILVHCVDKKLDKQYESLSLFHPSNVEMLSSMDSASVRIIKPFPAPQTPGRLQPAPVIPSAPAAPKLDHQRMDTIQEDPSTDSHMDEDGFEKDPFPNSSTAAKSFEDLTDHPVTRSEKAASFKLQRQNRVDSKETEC

Which results are given for `Cc1ccc(NC(=O)CN2C(=O)N/C(=C/c3cc(C)n(-c4cccc(C(=O)O)c4)c3C)C2=O)cc1`?
AC50 [1]: > 20 µM (inactive); IC50 [2]: 7.94 µM (active); AC50 [3]: 27.5 µM (active); IC50 [4]: 50 µM (inactive)

For `CC(=O)c1cc2c(cc1NS(=O)(=O)c1ccccc1Br)OCO2`, which EC50 (Kallikrein-7) is on record?
The EC50 was 66.2 µM (inactive).

Which AC50 [3] does the source give for `Cc1ccc(C(=O)OCC(=O)Nc2ccc3c(c2)OCO3)cc1S(=O)(=O)N1CCOCC1` here?
The AC50 was > 100 µM (inactive).

Which AC50 [5] does the source give for `CCCCN(CCCNC(=O)c1ccc2c(c1)NC(=O)CN2C)c1ccccc1` here?
The AC50 was 21.6 µM (active).

And the AC50 [6]?
The AC50 was 23.9 µM (active).

What about the CC50 (Vero) of the same compound?
Its CC50 is > 25 µM (active).

And the AC50 [7]?
Its AC50 is 16.7 µM (active).

Which IC50 [8] does the source give for `COc1ccc(OC(F)(F)F)cc1CC1(C)C(=O)Nc2ccc(-c3ccsc3)cc21` (centres undefined) here?
The IC50 was 8.48 µM (active).

And the IC50 [9]?
Its IC50 is > 69.5 µM (inactive).

With `COc1cc(/C=N/Nc2nc(C)nc3c2cnn3-c2ccccc2)ccc1O` as the compound, how does the AC50 [5] read?
Its AC50 is 23.1 µM (active).

And the AC50 [10]?
Its AC50 is 27.1 µM (active).

And the IC50 [11]?
Its IC50 is 9.67 µM (active).

What about the AC50 [7] of the same compound?
The AC50 was > 52 µM (inactive).

And the AC50 [12]?
The AC50 was 8.71 µM (active).

For `CCCCC[C@H](C)N1C[C@@H](COCc2ccccc2)Oc2cc(N3CCC[C@H]3CO)ccc2S1(=O)=O`, which AC50 [13] is on record?
The AC50 was > 30 µM (inactive).

For `CCCCCCCCN1C(=O)[C@H](CC(=O)NCC2CCCCC2)C[C@@]2(C(=O)OCC)CCC=C12`, which AC50 [13] is on record?
The AC50 was 27.7 µM (active).

With `C[C@H]1CN([C@@H](C)CO)S(=O)(=O)c2ccc(-c3ccc(F)cc3)cc2O[C@H]1CN(C)Cc1cccc(F)c1` as the compound, how does the AC50 [14] read?
The AC50 was 19.9 µM (active).

What about the AC50 [15] of the same compound?
Its AC50 is 12.4 µM (active).

Which results are given for `CCN(CC)C(=O)c1ncn2c1C(=O)NC[C@@H]2C`?
AC50 [15]: 8.99 µM (active); AC50 [16]: 24.7 µM (active); AC50 [17]: 9.08 µM (active)
